Laboratory results: US4323567A, “Arylmalonamido-1-oxadethiacephalosporins” (priority 1976, dated 1982)
Read-outs that look alike come from different tables or passages of the source.

Assays:
Test in all cases: Minimal inhibitory concentration, nutrient agar plate
Escherichia coli H = assay type: cell-based; settings: inoculum size 10^8, pH 7.0, read-out: Minimal inhibitory concentration
P. vulgaris CN-329 = assay type: cell-based; settings: Proteus vulgaris, CN329, inoculum size 10^8, pH 7.0, read-out: Minimal inhibitory concentration
P. vulgaris No. 3 = assay type: cell-based; settings: Proteus vulgaris, NO.3, inoculum size 10^8, pH 7.0, read-out: Minimal inhibitory concentration
E. coli JC-2 = assay type: cell-based; settings: Escherichia coli, JC2, inoculum size 10^8, pH 7.0, read-out: Minimal inhibitory concentration
P. morganii No. 9 = assay type: cell-based, Proteus morganii; settings: Morganella morganii, NO.9, inoculum size 10^8, pH 7.0, read-out: Minimal inhibitory concentration
[1] = system: Serratia marsescens 13880; assay type: cell-based; settings: Serratia, 13880, inoculum size 10^8, pH 7.0, read-out: Minimal inhibitory concentration
Ps. aeruginosa 24 = assay type: cell-based, Pseudomonas aeruginosa; settings: Pseudomonas aeruginosa, 24, inoculum size 10^8, pH 7.0, read-out: Minimal inhibitory concentration
Proteus mirabilis PR-4 = assay type: cell-based; settings: inoculum size 10^8, pH 7.0, read-out: Minimal inhibitory concentration
Klebsiella sp. 363 = assay type: cell-based; settings: inoculum size 10^8, pH 7.0, read-out: Minimal inhibitory concentration
Ps. aeruginosa 25619 = assay type: cell-based, Pseudomonas aeruginosa; settings: Pseudomonas aeruginosa, 25619, inoculum size 10^8, pH 7.0, read-out: Minimal inhibitory concentration
Enterobacter cloacae 233 = assay type: cell-based; settings: Enterobacter cloacae, 233, inoculum size 10^8, pH 7.0, read-out: Minimal inhibitory concentration
[2] = system: Pseudomonas aeruginosa Denken; assay type: cell-based; settings: inoculum size 10^8, pH 7.0, read-out: Minimal inhibitory concentration
E. coli 377 = assay type: cell-based, Escherichia coli; settings: Escherichia coli, 377, inoculum size 10^8, pH 7.0, read-out: Minimal inhibitory concentration
E. coli 73 = assay type: cell-based, Escherichia coli; settings: Escherichia coli, 73, inoculum size 10^8, pH 7.0, read-out: Minimal inhibitory concentration
Klebsiella pneumoniae = assay type: cell-based; settings: inoculum size 10^8, pH 7.0, read-out: Minimal inhibitory concentration
[3] = ester, in the presence of 5% horse serum, sodium salt

Structure (SMILES)	MIC (Escherichia coli H; as sodium salt) [µg/mL]	MIC (P. vulgaris CN-329; as sodium salt) [µg/mL]	MIC (P. vulgaris No. 3; as sodium salt) [µg/mL]	MIC (E. coli JC-2; as sodium salt) [µg/mL]	MIC (P. morganii No. 9; as sodium salt) [µg/mL]	MIC ([1]; as sodium salt) [µg/mL]	MIC (Ps. aeruginosa 24; as sodium salt) [µg/mL]	MIC (Proteus mirabilis PR-4; PR4, as sodium salt) [µg/mL]	MIC (Klebsiella sp. 363; SP.363, as sodium salt) [µg/mL]	MIC (Ps. aeruginosa 25619; as sodium salt) [µg/mL]	MIC (Enterobacter cloacae 233; as sodium salt) [µg/mL]	MIC ([2]; as sodium salt) [µg/mL]	MIC (E. coli 377; as sodium salt) [µg/mL]	MIC (E. coli 73; as sodium salt) [µg/mL]	MIC (Klebsiella pneumoniae; as sodium salt) [µg/mL]	also measured
CC(=O)OCC1=C(C(=O)O)N2C(=O)[C@@H](NC(=O)Cc3cccs3)[C@H]2SC1 [Cefalotin, reference compound]	3.2	> 100	> 100	12.5	> 100	> 100	> 100	3.2	> 100	> 100	> 100	> 100	> 100	> 100	1.6	
CO[C@@]1(NC(=O)C(C(=O)Oc2ccc3c(c2)CCC3)c2ccc(O)cc2)C(=O)N2C(C(=O)O)=C(CSc3nnnn3C)CO[C@@H]21 (stereo partly drawn) [III-16, 7β-[α-P-hydroxyphenyl-α-(5-indanyl)oxycarvonylacetamido]-7β-methoxy-3-(1-methyltetrazol-5-yl)thiomethyl-1-oxadethia-3-cephem-4-carboxylic acid]																MIC (Escherichia coli H; [3]): 0.1 µg/mL; MIC (P. vulgaris CN-329; [3]): 0.78 µg/mL; MIC (P. vulgaris No. 3; [3]): 0.39 µg/mL; MIC (E. coli JC-2; [3]): 0.02 µg/mL; MIC (P. morganii No. 9; [3]): 0.2 µg/mL; MIC [1, 3]: 0.39 µg/mL; MIC (Ps. aeruginosa 24; [3]): 25 µg/mL; MIC (Proteus mirabilis PR-4; PR4, ester, in the presence of 5% horse serum, sodium salt): 0.39 µg/mL; MIC (Klebsiella sp. 363; SP.363, ester, in the presence of 5% horse serum, sodium salt): 0.2 µg/mL; MIC (Ps. aeruginosa 25619; [3]): 12.5 µg/mL; MIC (Enterobacter cloacae 233; [3]): 0.39 µg/mL; MIC [2, 3]: 100 µg/mL; MIC (E. coli 377; [3]): 0.2 µg/mL; MIC (E. coli 73; [3]): 0.78 µg/mL; MIC (Klebsiella pneumoniae; [3]): 0.2 µg/mL
Cc1nnc(SCC2=C(C(=O)O)N3C(=O)[C@@H](NC(=O)Cn4cnnn4)[C@H]3SC2)s1 [Cefazolin, reference compound]	1.6	> 100	> 100	3.2	> 100	> 100	> 100	6.2	> 100	> 100	> 100	> 100	100	> 100	3.2	
